Laboratory results taken from patent US20260199299A1, “BETA CARBOLINES AS TOPICAL ANTI-INFLAMMATORY AGENTS FOR APPLICATION TO MUCOUS MEMBRANES” (President and Fellows of Harvard College, priority 2022, published 2026).

Test system: NFκB
Test: NFκB induction in primary monocytes (FIG. 9A-9C)
Type: cell-based

OCc1ccc(-c2nccc3c2[nH]c2ccccc23)o1 [Compound 8]
suppression of NFκB induction in primary monocytes: suppression of NFκB induction
